Assay: recombinant UMI read abundance after kanamycin selection (control-corrected) (log10(CPM+1)); higher = more efficient recombination; extreme values may be limits of the assay; sequences stand for … in AGTGCAGAGAAAATCGGCCAGTTTTCTCTGCCTGCAGTCCGCATGCCGTGGGACCCCTTGGGTTCTAACCTGTTGCCTAGATTTATGCAGCGGACTGCCTTTCTCCCAAAGTGATAAACCGG…AGGTTGGTTTCACT; site = the 11-nt donor
Method in brief: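 For the IS621 bridge recombinase, a pooled Escherichia coli screen tested donor and donor-binding-loop pairs. Cells received the pair library together with a target plasmid encoding a fixed target and T7-inducible recombinase, then went onto IPTG (0.07 mM) plus kanamycin or unselected plates in duplicate. After PCR across the donor–target junction and sequencing, recombinant UMI counts were normalized to CPM, averaged, and scaled by control-derived factors. Each value is given as log10(CPM+1).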
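Further: IS621 bridge recombinase in Escherichia coli cells against a fixed T5 target plasmid.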

Sequence	recombinant UMI read abundance (log10)
GCCGCGCCATGGACCGGTTTTCCCGGTAATCCGTATTTGTA (site GCCACGCCTTA)	0.00924
GCCGCGCCATGGACCGGTTTTCCCGGTAATCCGTATTTGTA (site GCCCCGCCTTA)	0.00531
GCCGCGCCATGGACCGGTTTTCCCGGTAATCCGTATTTGTA (site GCCGCGCCTTA)	0.234
GCCGCGCCATGGACCGGTTTTCCCGGTAATCCGTATTTGTA (site GCCTCGCCTTA)	0.18
GCCGCTCCATGGACCGGTTTTCCCGGTAATCCGTATTTGGT (site GCCGCTCCTAC)	0.0147
GCCGGTCCATGGACCGGTTTTCCCGGTAATCCGTATTTGCA (site ACCGGTCCTTG)	0
GCCGGTCCATGGACCGGTTTTCCCGGTAATCCGTATTTGCA (site CCCGGTCCTTG)	0
GCCGGTCCATGGACCGGTTTTCCCGGTAATCCGTATTTGCA (site GCCGGTCCTTG)	0
GCCGGTCCATGGACCGGTTTTCCCGGTAATCCGTATTTGCA (site TCCGGTCCTTG)	0
GCCGTATCATGGACCGGTTTTCCCGGTAATCCGTATTTGCA (site ACAGTATCTTG)	2.87
GCCGTATCATGGACCGGTTTTCCCGGTAATCCGTATTTGCA (site GCCGTATCTTG)	2.22
GCCTAAACATGGACCGGTTTTCCCGGTAATCCGTATTTGGT (site GCCTAAACTAC)	1.07
GCCTAATCATGGACCGGTTTTCCCGGTAATCCGTATTTGGC (site GCCTAATCTGC)	0.963
GCCTATCCATGGACCGGTTTTCCCGGTAATCCGTATTTGAC (site GCCTATCCTGT)	0
GCCTCGCCATGGACCGGTTTTCCCGGTAATCCGTATTTGGT (site GCCTCGCCTAC)	0
GCCTCTACATGGACCGGTTTTCCCGGTAATCCGTATTTGCC (site GCCTCTACTGG)	1.37

Sequence	recombinant UMI read abundance (log10)
GCCTGGCCATGGACCGGTTTTCCCGGTAATCCGTATTTGCT (site GCCTGGCCTAG)	0
GCCTGTGCATGGACCGGTTTTCCCGGTAATCCGTATTTGAC (site GCCTGTGCTGT)	0.472
GCGAAAACATGGACCGGTTTTCCCGGTAATCCGTATTTGCA (site GCGAAAACTAG)	0
GCGAAAACATGGACCGGTTTTCCCGGTAATCCGTATTTGCA (site GCGAAAACTCG)	1.4
GCGAAAACATGGACCGGTTTTCCCGGTAATCCGTATTTGCA (site GCGAAAACTGG)	0
GCGAAAACATGGACCGGTTTTCCCGGTAATCCGTATTTGCA (site GCGAAAACTTG)	0.929
GCGAAATCATGGACCGGTTTTCCCGGTAATCCGTATTTGCT (site GCGAAAACTAG)	0
GCGAAATCATGGACCGGTTTTCCCGGTAATCCGTATTTGCT (site GCGAAACCTAG)	0
GCGAAATCATGGACCGGTTTTCCCGGTAATCCGTATTTGCT (site GCGAAAGCTAG)	0
GCGAAATCATGGACCGGTTTTCCCGGTAATCCGTATTTGCT (site GCGAAATCTAG)	1.62
GCGAACCCATGGACCGGTTTTCCCGGTAATCCGTATTTGAT (site GCGAACCCTAT)	0.903
GCGAACCCATGGACCGGTTTTCCCGGTAATCCGTATTTGGG (site GCGAAACCTCC)	0.013
GCGAACCCATGGACCGGTTTTCCCGGTAATCCGTATTTGGG (site GCGAACCCTCC)	0.0373
GCGAACCCATGGACCGGTTTTCCCGGTAATCCGTATTTGGG (site GCGAAGCCTCC)	0.00885
GCGAACCCATGGACCGGTTTTCCCGGTAATCCGTATTTGGG (site GCGAATCCTCC)	0.0113
GCGAAGACATGGACCGGTTTTCCCGGTAATCCGTATTTGCT (site GCGAAAACTAG)	1.01

From the supplement of paper PMC11208160
